PMC4965013, “Open Source Drug Discovery with the Malaria Box Compound Collection for Neglected Diseases and Beyond” (PLoS Pathogens, 2016)

Tests used:
P. falciparum = assay: EC50 listed in S2 Table Metabolomics (used to set the concentration tested); assay type: cell-based; conditions: Plasmodium falciparum; EC50 used for Factor_XEC50 in metabolomics; read-out: EC50_nM
[1] = tested on: P. falciparum 3D7 trophozoites; assay: Metabolomic fingerprint profiling LC-MS; assay type: cell-based, Plasmodium falciparum; design: UDP-D-glucose / ADP-D-glucose: unit not given here; conditions: for Acetyllysine / N-acetyl-L-ornithine / N-carbamoyl-L-aspartate / NADPH / dAMP / dCMP / dTDP / dTMP / dTTP / dihydroorotate / orotate / DLH / DLS/SDL/SID / PD / PEE / PVNF / 3-phosphoglycerate / ADP-D-glucose / ATP / CDP / D-sedoheptulose-1/7-phosphate / FAD / GMP / NAD+ / NADP+ / Octoluse Bisphosphate / Pyroglutamic acid / UDP-D-glucose / UDP-D-glucuronate / UDP-N-acetyl-glucosamine / UDP / UMP / UTP / a-ketoglutarate / citrate/isocitrate / cytidine / dATP / dGMP/AMP / fumarate / glucose-1/6-phosphate / glycerate / guanine / guanosine / hypoxanthine / indole / inosine / nicotinate / ornithine / phosphoenolpyruvate / pyruvate / ribose-phosphate / sarcosine/alanine / sn-glycerol-3-phosphate / succinate/methylmalonic acid / uridine / xanthosine: S2 Table Metabolomics; for Acetyllysine: metabolite Acetyllysine; for N-acetyl-L-ornithine: metabolite N-acetyl-L-ornithine; for N-carbamoyl-L-aspartate: metabolite N-carbamoyl-L-aspartate; for NADPH: metabolite NADPH; for dAMP: metabolite dAMP; for dCMP: metabolite dCMP; for dTDP: metabolite dTDP; for dTMP: metabolite dTMP; for dTTP: metabolite dTTP; for dihydroorotate: metabolite dihydroorotate; for orotate: metabolite orotate; for DLH: peptide DLH; for DLS/SDL/SID: peptide DLS/SDL/SID; for PD: peptide PD; for PEE: peptide PEE; for PVNF: peptide PVNF; for 3-phosphoglycerate: metabolite 3-phosphoglycerate; for ADP-D-glucose: metabolite ADP-D-glucose; for ATP: metabolite ATP; for CDP: metabolite CDP; for CDP / D-sedoheptulose-1/7-phosphate / GMP / Octoluse Bisphosphate / UDP / UMP / UTP / citrate/isocitrate / dGMP/AMP / fumarate / glucose-1/6-phosphate / glycerate / guanine / guanosine / inosine / pyruvate / sarcosine/alanine / succinate/methylmalonic acid / uridine / xanthosine: change in metabolite level after compound treatment; for D-sedoheptulose-1/7-phosphate: metabolite D-sedoheptulose-1/7-phosphate; for FAD: metabolite FAD; for GMP: metabolite GMP; for NAD+: metabolite NAD+; for NADP+: metabolite NADP+; for Octoluse Bisphosphate: metabolite Octoluse Bisphosphate; for Pyroglutamic acid: metabolite Pyroglutamic acid; for UDP-D-glucose: metabolite UDP-D-glucose; for UDP-D-glucuronate: metabolite UDP-D-glucuronate; for UDP-N-acetyl-glucosamine: metabolite UDP-N-acetyl-glucosamine; for UDP: metabolite UDP; for UMP: metabolite UMP; for UTP: metabolite UTP; for a-ketoglutarate: metabolite a-ketoglutarate; for citrate/isocitrate: metabolite citrate/isocitrate; for cytidine: metabolite cytidine; for dATP: metabolite dATP; for dGMP/AMP: metabolite dGMP/AMP; for fumarate: metabolite fumarate; for glucose-1/6-phosphate: metabolite glucose-1/6-phosphate; for glycerate: metabolite glycerate; for guanine: metabolite guanine; for guanosine: metabolite guanosine; for hypoxanthine: metabolite hypoxanthine; for indole: metabolite indole; for inosine: metabolite inosine; for 2_3-Diphosphoglyceric acid / 4-phosphopantothenate / 6-phospho-D-gluconate / FMN / IMP / Pyrophosphate / Sedoheptoluse bisphosphate / cyclic-AMP / glutathione disulfide / lactate / myo-inositol: metabolite level change after treatment; for nicotinate: metabolite nicotinate; for ornithine: metabolite ornithine; for phosphoenolpyruvate: metabolite phosphoenolpyruvate; for pyruvate: metabolite pyruvate; for ribose-phosphate: metabolite ribose-phosphate; for sarcosine/alanine: metabolite sarcosine/alanine; for sn-glycerol-3-phosphate: metabolite sn-glycerol-3-phosphate; for succinate/methylmalonic acid: metabolite succinate/methylmalonic acid; for uridine: metabolite uridine; for xanthosine: metabolite xanthosine

Molecule Cc1ccc(-c2cc3c(SCC(=O)Nc4cc(C(F)(F)F)ccc4Cl)nccn3n2)cc1 [MMV396680] has an EC50 (P. falciparum) of 92.8 nM, an Acetyllysine [1] of -0.4906 and a N-acetyl-L-ornithine [1] of -0.1465. For the same molecule, the N-carbamoyl-L-aspartate [1] was 2.456, the NADPH [1] was 0.3651 and the dAMP [1] was -0.4552. The dCMP [1] was -0.05341, the dTDP [1] was -1.136 and the dTMP [1] was -1.083. The dTTP [1] was -1.158, the dihydroorotate [1] was 3.543 and the orotate [1] was -0.9159. It also gave a DLH [1] of -0.3949, a DLS/SDL/SID [1] of -0.337 and a PD [1] of -0.05706. The PEE [1] was -0.2567, the PVNF [1] was -0.5778 and the 3-phosphoglycerate [1] was -0.2595. For the same molecule, the ADP-D-glucose [1] was -0.2217, the ATP [1] was -0.3128 and the CDP [1] was -0.9741. It also gave a D-sedoheptulose-1/7-phosphate [1] of -0.1867, an FAD [1] of 0.01886 and a GMP [1] of 0.2283. For the same molecule, the “NAD+” value [1] was 0.1566, the “NADP+” value [1] was -0.1345 and the “Octoluse Bisphosphate” value [1] was -0.3002. For the same molecule, the Pyroglutamic acid [1] was -0.01833, the UDP-D-glucose [1] was -0.08257 and the UDP-D-glucuronate [1] was -0.2581. For the same molecule, the UDP-N-acetyl-glucosamine [1] was -0.1134, the UDP [1] was -1.014 and the UMP [1] was -0.7737. For the same molecule, the UTP [1] was -1.292, the a-ketoglutarate [1] was -0.4564 and the citrate/isocitrate [1] was -0.8044. The cytidine [1] was 0.4371, the dATP [1] was 0.3628 and the dGMP/AMP [1] was -1.368. It also gave a fumarate [1] of -0.8765, a glucose-1/6-phosphate [1] of 0.09137 and a glycerate [1] of -0.2491. It also gave a guanine [1] of 0.04089, a guanosine [1] of -0.01605 and a hypoxanthine [1] of -0.1601. The indole [1] was -0.003888, the inosine [1] was -0.03937 and the 2_3-Diphosphoglyceric acid [1] was -0.2285. The 4-phosphopantothenate [1] was -0.2363, the 6-phospho-D-gluconate [1] was 0 and the FMN [1] was -0.1967. For the same molecule, the IMP [1] was -0.1897, the Pyrophosphate [1] was 0.5607 and the Sedoheptoluse bisphosphate [1] was -0.2656. The cyclic-AMP [1] was -0.07723, the glutathione disulfide [1] was -0.04075 and the lactate [1] was -0.4254. It also gave a myo-inositol [1] of -0.7104, a nicotinate [1] of -0.4764 and an ornithine [1] of -0.2162. It also gave a phosphoenolpyruvate [1] of -0.2321, a pyruvate [1] of -0.2774 and a ribose-phosphate [1] of -0.04672. For the same molecule, the sarcosine/alanine [1] was -0.2257, the sn-glycerol-3-phosphate [1] was -0.3003 and the succinate/methylmalonic acid [1] was 0.02717. It also gave a uridine [1] of -0.7719 and a xanthosine [1] of -0.1274.
For O=[N+]([O-])c1ccc(C=NNc2nc3ccccc3[nH]2)cc1 [MMV666607], the EC50 (P. falciparum) was 142 nM, the Acetyllysine [1] was -1.035 and the N-acetyl-L-ornithine [1] was -1.151. It also gave a N-carbamoyl-L-aspartate [1] of 0.2298, an NADPH [1] of 4.216 and a dAMP [1] of 0.3403. For the same molecule, the dCMP [1] was 0.1583, the dTDP [1] was 0.005163 and the dTMP [1] was -0.3628. For the same molecule, the dTTP [1] was 0.4469, the dihydroorotate [1] was 0.1326 and the orotate [1] was 0.05442. For the same molecule, the DLH [1] was -0.8554, the DLS/SDL/SID [1] was -0.615 and the PD [1] was -0.4537. It also gave a PEE [1] of -0.9074, a PVNF [1] of -1.15 and a 3-phosphoglycerate [1] of 0.2233. It also gave an ADP-D-glucose [1] of 0.2125, an ATP [1] of 0.06188 and a CDP [1] of -0.1249. It also gave a D-sedoheptulose-1/7-phosphate [1] of -0.1388, an FAD [1] of -0.1276 and a GMP [1] of -0.06014. For the same molecule, the “NAD+” value [1] was -0.1512, the “NADP+” value [1] was 0.1119 and the “Octoluse Bisphosphate” value [1] was -0.09651. For the same molecule, the Pyroglutamic acid [1] was -0.1918, the UDP-D-glucose [1] was -0.06053 and the UDP-D-glucuronate [1] was -0.006477. It also gave a UDP-N-acetyl-glucosamine [1] of -0.08493, a UDP [1] of -0.2957 and a UMP [1] of -0.07591. It also gave a UTP [1] of 0.3053, an a-ketoglutarate [1] of -0.2127 and a citrate/isocitrate [1] of -0.1765. It also gave a cytidine [1] of -0.4158, a dATP [1] of 0.1896 and a dGMP/AMP [1] of 0.09335. The fumarate [1] was 0.008021, the glucose-1/6-phosphate [1] was -0.3879 and the glycerate [1] was -0.4956. It also gave a guanine [1] of -0.1214, a guanosine [1] of 0.1402 and a hypoxanthine [1] of -0.3554. The indole [1] was -0.1954, the inosine [1] was -0.3969 and the 2_3-Diphosphoglyceric acid [1] was 0.1914. The 4-phosphopantothenate [1] was 0.07423, the 6-phospho-D-gluconate [1] was 0.02335 and the FMN [1] was -0.06375. For the same molecule, the IMP [1] was 0.01329, the Pyrophosphate [1] was 0.2379 and the Sedoheptoluse bisphosphate [1] was 0.02366. It also gave a cyclic-AMP [1] of 0.0305, a glutathione disulfide [1] of 0.01063 and a lactate [1] of -0.3072. It also gave a myo-inositol [1] of -0.4133, a nicotinate [1] of 0.09712 and an ornithine [1] of -0.3198. The phosphoenolpyruvate [1] was 0.2853, the pyruvate [1] was -0.3236 and the ribose-phosphate [1] was 0.1666. It also gave a sarcosine/alanine [1] of -0.06565, a sn-glycerol-3-phosphate [1] of -0.0116 and a succinate/methylmalonic acid [1] of 0.01013. For the same molecule, the uridine [1] was -0.4646 and the xanthosine [1] was 0.06506.
For COc1ccc(NC(=O)C2c3ccccc3C(=O)N(CC(C)C)C2c2cccs2)cc1Cl (stereo not drawn) [MMV000642], the EC50 (P. falciparum) was 20.2 nM, the Acetyllysine [1] was -5.193 and the N-acetyl-L-ornithine [1] was -3.747. The N-carbamoyl-L-aspartate [1] was -2.41, the NADPH [1] was -0.3813 and the dAMP [1] was 2.141. For the same molecule, the dCMP [1] was 1.187, the dTDP [1] was 1.699 and the dTMP [1] was 3.58. It also gave a dTTP [1] of 1.5, a dihydroorotate [1] of -2.555 and an orotate [1] of -0.348. For the same molecule, the DLH [1] was -5.968, the DLS/SDL/SID [1] was -3.9977 and the PD [1] was -2.5956. The PEE [1] was -3.5386, the PVNF [1] was -6.505 and the 3-phosphoglycerate [1] was -0.2719. It also gave an ADP-D-glucose [1] of -0.1906, an ATP [1] of -1.554 and a CDP [1] of -0.7723. For the same molecule, the D-sedoheptulose-1/7-phosphate [1] was -1.211, the FAD [1] was -1.709 and the GMP [1] was -1.9066. The “NAD+” value [1] was -0.5171, the “NADP+” value [1] was -0.1638 and the “Octoluse Bisphosphate” value [1] was -2.57. The Pyroglutamic acid [1] was 0.06474, the UDP-D-glucose [1] was -0.2074 and the UDP-D-glucuronate [1] was -0.1541. The UDP-N-acetyl-glucosamine [1] was -0.04904, the UDP [1] was -1.27 and the UMP [1] was -0.4497. For the same molecule, the UTP [1] was -1.308, the a-ketoglutarate [1] was -0.0007361 and the citrate/isocitrate [1] was -0.3751. The cytidine [1] was 0.1777, the dATP [1] was 0.01445 and the dGMP/AMP [1] was -0.6011. For the same molecule, the fumarate [1] was -0.3143, the glucose-1/6-phosphate [1] was -1.542 and the glycerate [1] was -0.9599. For the same molecule, the guanine [1] was 0.2177, the guanosine [1] was 0.8357 and the hypoxanthine [1] was -0.2894. It also gave an indole [1] of -0.1989, an inosine [1] of 0.04742 and a 2_3-Diphosphoglyceric acid [1] of -1.07. It also gave a 4-phosphopantothenate [1] of -0.7331, a 6-phospho-D-gluconate [1] of -0.5035 and an FMN [1] of -0.2051. The IMP [1] was -0.1621, the Pyrophosphate [1] was -1.141 and the Sedoheptoluse bisphosphate [1] was -1.388. The cyclic-AMP [1] was -0.8649, the glutathione disulfide [1] was -0.7288 and the lactate [1] was -1.097. It also gave a myo-inositol [1] of -1.4412, a nicotinate [1] of 0.5786 and an ornithine [1] of 0.1669. The phosphoenolpyruvate [1] was 0.08762, the pyruvate [1] was -0.8949 and the ribose-phosphate [1] was -0.3617. It also gave a sarcosine/alanine [1] of -1.783, a sn-glycerol-3-phosphate [1] of 1.156 and a succinate/methylmalonic acid [1] of 0.05807. The uridine [1] was 1.2 and the xanthosine [1] was -1.585.
